Consider 5 compounds from patent publication US20230303577A1, “TEMOZOLOMIDE ANALOGS AND METHODS OF USE” (St. John's Cancer Institute, priority 2020, published 2023).

One data set concerns Caco-2. Kind of data set: Bidirectional Caco-2 permeability / P-gp efflux assay. The class given is in vitro ADME. Conditions: human, Caco-2. Here is the method: (§1) Permeability of the compounds was evaluated in the bidirectional Caco-2 assay including identification of P-glycoprotein substrate (Pgp-mediated transport). Verapamil was used as a p-gp inhibitor. The apparent permeability (Papp) was calculated using the following equation:
(§2) Papp=VA/Area×Time×[drug]acc/[drug]initial,d
(§3) Permeability of the compounds was evaluated in the bidirectional Caco-2 assay as described in Example 11 (Table 15).

Another data set has as its system P-gp. The data set is described as above. The class given is in vitro ADME. Conditions: human. As to the method: as §1, §2, §3
The subject of data set [1] is U251. Kind of data set: cells. Conditions: read-out: IC50, 72 h. As to the method:
(§4) The effect of selected compounds on glioma cells viability was determined. The cells were plated at 2000 cells/well in 96 well plates. The day after, cells were treated with various concentrations of temozolomide or VMY-TP analogs.
(§5) Activity of TP-RGD was assessed in glioma cell cultures, as described in Example 11.

A further data set deals with U87. Description: cells. Conditions: read-out: IC50, 72 h. As to the method:
as §4, §5

The test system of the next data set is T98G. Description: cells. Here is the method: as §4, §5
A short description of data set [2]: Aqueous chemical stability (HPLC-MS). The class given is physicochemical. Here is the method:
Detection of products of non-enzymatic cleavage (AIC-TMZ, AIC-TP3, AIC-TP5, and AIC-TP9) was performed (Table 4; FIGS. 5A-5D).

Data set [3] is described as follows: BBB permeability, cassette intravenous dosing. Conditions: cassette IV 5 mg/kg; for concentration at 5 min: 10% DMSO in PBS. The class given is in vivo, male CD-1 mice. Here is the method:
BBB permeability of the compounds was tested in male CD-1@IGS mice using cassette intravenous dosing (Table 7 and FIGS. 6A and 6B). There were three animals in each group, given a dose of 5 mg/kg formulated in 10% DMSO in PBS (v/v) for 5 minutes. The endpoint was quantifying the parent compound using LC-MS/MS. Plasma samples (50 μl) were immediately mixed with 25 μl of H3PO4 (8.5%). Then 225 μl of internal standard (IS; 400 ng/ml meldonium in methanol) was added. After mixing by pipetting and centrifuging for 4 min at 6000 rpm, 2 μl of each supernatant was injected into LC-MS/MS system. Brain samples (100 mg±1 mg) were immediately mixed with 100 μl H3PO4 (25%) and zirconium oxide beads (115 mg±5 mg). Then 400 μl of IS solution was added and samples were disperse using a bullet blender homogenizer for 30 seconds at speed 8. The samples were centrifuged for 4 min at 14,000 rpm and 2 μl of each supernatant was injected into LC-MS/MS system.

For the next data set, the system named is GBM8. Kind of data set: AlamarBlue cell viability, GBM8 patient-derived cell line. Type of data set: cell-based. The following applies: 72 h, read-out: IC50, 72 h. Here is the method:
as §4
On the technique in general: Resazurin is reduced to fluorescent resorufin, in cell work by metabolically active cells.

Data set [4] can be described thus: Metabolic stability in mouse liver microsomes. The class given is in vitro ADME. Here is the method: Metabolic stability of the compounds was also determined in mouse liver microsomes at five time points over 60 minutes, using HPLC-MS. Liver microsomes, as vesicles of the hepatocyte endoplasmic reticulum, contain membrane phase I enzymes namely CYPs, flavine-containing monooxygenases (FMO), esterases, amidases, and epoxide hydrolases, and also the phase II enzymes such as UGTs. For the catalytic activity of both phase I and II enzymes, addition of exogenous cofactors such as NADPH for CYPs and FMO, and UDPGA/alamethicin for UGTs is necessary.
(In general: Liver microsomes are vesicles of endoplasmic reticulum, rich in cytochrome P450 enzymes.)

The subject of the next data set is T98G cells. Kind of data set: Cell Titer Glo viability of T98G cells with or without O6-BG pretreatment. Type of data set: cell-based. As to the method:
T98G cells, which express MGMT, were treated with TMZ or test compounds with or without 3, 6, or 24 hours of pretreatment with 100 μM of O^6-benzylguanine (O^6-BG; a pseudo-substrate of MGMT that quenches the cellular store of enzyme). T98G cell lysates were probed with anti-MGMT antibody and then with anti-a tubulin (FIG. 4). In a separate experiment, TMZ or test compounds were added to T98G cells with or without 5-6 hours of pretreatment with 100 μM O^6-BG. Cell viability was measured using the Cell Titer Glo assay after 3 days of incubation and IC50 values were determined (Table 3).

The subject of the next data set is A172. Description: cells. Conditions: read-out: IC50, 72 h; A172, MGMT −, Table 14. Here is the method:
as §4, §5

The conditions of data set [5]: for % decomp.: AIC formation, pH>7.4, 60° C.; for % SM: phosphate buffer pH>7.4, 60° C. As to the method: 2 mg of TP-RGD was dissolved in 0.8 mL of phosphate buffer at pH>7.4. […] Then the reaction temperature was increased to 60° C. and incubated for 4 h. During the period of incubation, the reaction was monitored for every 30 min by LC-MS. Measure the AIC formation (% decomp) over the time.

The test system of data set [6] is U251. The following applies: read-out: IC50 U251 cell proliferation (BrdU ELISA); 72 hours of treatment. In general terms: Uptake of a labelled nucleoside into DNA is a usual measure of proliferation.
Procedure: U87 cells were seeded at the density of 2,000 cells/well in 96-well plates and incubated overnight. The day after, cells were treated with various concentrations of Temozolomide or analogs for 72 hours. The BrdU ELISA proliferation assay was performed according to the manufacturer's instructions (Roche, #11647229001). Briefly, 20 μl of diluted BrdU labelling reagent was added to each well, to a final concentration of 10 μM BrdU per well. The cells were then incubated at 37° C. for 24 hours. Following this incubation, the labeling medium was aspirated from each well and 200 μl of Roche FixDenat fixing buffer was added. The plates were then incubated at 25° C. for 30 minutes. The fixing solution was removed, and 100 μl of Anti-BrdU-POD antibody was added to each well and incubated again at 25° C. for 90 minutes. Wells were rinsed three times with 200 μl of PBS, then 100 μl of Roche Substrate solution was added to each well. Following a 25 minute incubation at room temperature, the absorbance of each plate was read at 370 nm (reference wavelength: approx. 492 nm) on a Spectramax® i3x microplate reader.
The effect on U251 cell proliferation after 72 hours of treatment was also assessed using the BrdU ELISA cell proliferation assay as described in Example 11.
Another data set concerns P-glycoprotein (P-gp). Description: Bidirectional Caco-2 permeability / P-gp efflux assay. The following applies: human; Caco-2 permeability; P-gp efflux ratio, Table 15. Type of data set: in vitro ADME. Here is the method: as §1, §2, §3

Where two headings read alike, the source gives them in different places.

Consider `C[C@H]1O[C@@H](O[C@H]2[C@@H](O)C[C@H](O[C@H]3[C@@H](O)C[C@H](O[C@H]4CC[C@@]5(C)[C@H](CC[C@@H]6[C@@H]5C[C@@H](O)[C@]5(C)[C@@H](C7=CC(=O)OC7)CC[C@]65O)C4)O[C@@H]3C)O[C@@H]2C)C[C@H](O)[C@@H]1O` [Digoxin], for which, in the data set on Caco-2, the “Efflux Ratio BA/AB p-gp Inhibitor (+)” value was found to be 1.0, the “Papp (AB) p-gp Inhibitor (+)” value is 5.9 10^−6 cm/s and the “Papp (BA) p-gp Inhibitor (+)” value was 6.1 10^−6 cm/s. In the data set on P-gp (Caco-2), this compound displayed a Papp A→B of 12 nm/s and a Papp B→A of 158 nm/s. Further, the efflux ratio in the data set on P-gp (Caco-2, Efflux Ratio BA/AB p-gp Inhibitor (−)) is 13.6.

Broadly, the half-life is the time in which the quantity being followed falls by half. A high value points to slow decline. As usually defined, the Kp is the ratio of the level in a tissue or fluid to that in plasma or blood. As to `Cn1nnc2c(C(=O)NC3CCCCC3)ncn2c1=O` [TP5, N-cyclohexyl-3-methyl-4-oxo-3,4-dihydroimidazo[5,1-d][1,2,3,5]tetrazine-8-carboxamide], the IC50 worked out at 139 µM in the data set on U251 [1] (Homo sapiens, U-251, 72 h); 168 µM with U87 (Homo sapiens, U-87 MG, 72 h); 581 µM in the data set with T98G (Homo sapiens, 72 h, read-out: IC50, 72 h); 28 µM in the data set with GBM8; 168 µM with T98G cells (Homo sapiens, read-out: IC50 With O^6-BG pretreatment); 410 µM with T98G cells (Homo sapiens, read-out: IC50 Without O^6-BG pretreatment). Also, the half-life at 1 μM was more than 2 h in data set [2] (0.1 M phosphate buffer pH 7.0), 0.667 h in data set [2] (0.1 M phosphate buffer pH 8.0) and 1.15 h in data set [2] (PBS pH 7.4). Moreover, the “% Brain” value in [3] (5 min) came out at 25%. For the same compound, the “% Plasma” value in [3] (5 min) is 75%. Further, the concentration at 5 min in [3] (male, CD-1, mouse, brain, read-out: Brain Conc.) is 3050 ng/g; in [3] (male, CD-1, mouse, plasma, read-out: Plasma Conc), 3.12 µg/mL. The same compound gave a Kp at 5 min in data set [3] (male, CD-1, mouse, brain/plasma) of 0.99. In data set [4], the “Clearance Classification (Low <8.6; High >48)” value is “Moderate”. Also, the microsomal CLint in [4] (mouse, liver microsomes, read-out: Intrinsic clearance (Clint)) is 25 µL/min/mg. Besides, the “% remaining (1 h) With co-factors” value in data set [4] (with co-factors) is 49%. For the same compound, in [4] (without co-factors), the “% remaining (1 h) Without co-factors” value is given as 94%. Besides, the efflux ratio in the data set with P-gp (Caco-2, without verapamil, read-out: Efflux Ratio BA/AB p-gp Inhibitor (−)) stood at 0.9. For the same compound, in the data set on P-gp (Caco-2, without verapamil, read-out: Papp (AB) p-gp Inhibitor (−)), the Papp A→B stood at 266 nm/s. The Papp B→A with P-gp (Caco-2, without verapamil, read-out: Papp (BA) p-gp Inhibitor (−)) turned out to be 243 nm/s.

For `Cn1nnc2c(C(=O)NCCCC[C@@H]3NC(=O)[C@@H](Cc4ccc(O)cc4)NC(=O)[C@H](CC(=O)O)NC(=O)CNC(=O)[C@H](CCCNC(=N)N)NC3=O)ncn2c1=O` [TP-RGD], the IC50 with A172 was 0.383 µM; in the data set with U251 [1] (U251, MGMT −, Table 14), 0.306 µM; in the data set on U87 (U87MG, MGMT −, Table 14) it was more than 100 µM; with T98G (read-out: IC50, 72 h, MGMT +++, Table 14) it was 0.254 µM; with U251 [6] it was 70.2 µM. For the same compound, the “% decomp.” value is 0% in data set [5] (0.5 h); 18.2% in [5] (1 h); 33.9% in [5] (1.5 h); 53.5% in data set [5] (2 h); 56.8% in [5] (2.5 h); 61.6% in data set [5] (3 h). In addition, the “% decomp.” value in data set [5] (4 h) and in [5] (4.5 h) was 94.7% in each case. Besides, the “% SM” value in data set [5] (1 h) is 81.8%; in data set [5] (1.5 h) it was 65.5%; in data set [5] (2 h), 45.9%; in [5] (2.5 h), 39.3%; in [5] (3 h), 27.4%; in data set [5] (4 h), 2.3%. The “% SM” value in data set [5] (4.5 h) turned out to be 2.3%. Also, in [5] (phosphate buffer pH>7.4, room temperature), the “product formation (hydrolysis)” value is listed as “no product formation”. The efflux ratio with P-glycoprotein (P-gp) came to 0.57.

As for `O[C@H]([C@H](O)[C@@H]1CO1)[C@H]1CO1` [VAL-083, reference compound], the IC50 was found to be 71 µM in the data set with T98G cells (5-6 h pretreatment with 100 μM O6-BG, 3 days, read-out: IC50 With O^6-BG pretreatment) and 108 µM in the data set on T98G cells (3 days, read-out: IC50 Without O^6-BG pretreatment).

For `CC[C@]1(O)C[C@@H]2CN(CCc3c([nH]c4ccccc34)[C@@](C(=O)OC)(c3cc4c(cc3OC)N(C)[C@H]3[C@@](O)(C(=O)OC)[C@H](OC(C)=O)[C@]5(CC)C=CCN6CC[C@]43[C@@H]65)C2)C1` [Vinblastine], the efflux ratio in the data set on P-gp (Caco-2, Efflux Ratio) amounted to 21.7.
